Experimental data as given in patent publication US6656911B2, “Serine protease inhibitors” (Cortech, Inc., priority 1994, dated 2003).
Each block holds one molecule with its values, some of them ahead of it.

Tests used:
[1] = target: T1, elastase derived from human sputum (HSE) (Homo sapiens, UniProt P08246); experiment: In vitro inhibition of elastase (ONO-PO series); format: biochemical; details: substrate N-methoxysuccinyl-Ala-Ala-Pro-Val-p-nitroaniline, 37° C., pH 8.0, IC50 converted to Ki by Dixson plot
T1 construct: prepared from commercially available HSE (875 U/mg protein, SE-563, Elastin Product Co., Inc., Missouri, USA); purchased Elastin Product Co., Inc., Missouri, USA SE-563; host or cells: human sputum (natural enzyme)
T1 sequence (P08246 30-247 limits assumed): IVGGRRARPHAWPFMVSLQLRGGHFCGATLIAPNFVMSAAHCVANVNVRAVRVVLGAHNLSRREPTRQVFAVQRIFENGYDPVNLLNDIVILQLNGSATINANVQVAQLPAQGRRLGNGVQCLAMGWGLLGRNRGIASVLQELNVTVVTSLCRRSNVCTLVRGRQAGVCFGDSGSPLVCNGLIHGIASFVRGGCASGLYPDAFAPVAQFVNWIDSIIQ

[2] = target: T2, human neutrophil elastase (HNE) (Homo sapiens, UniProt P08246); experiment: HNE Ki of CE compounds, tested as described in WO 96/16080; format: biochemical; details: read-out: HNE Ki
T2 sequence (P08246 30-267): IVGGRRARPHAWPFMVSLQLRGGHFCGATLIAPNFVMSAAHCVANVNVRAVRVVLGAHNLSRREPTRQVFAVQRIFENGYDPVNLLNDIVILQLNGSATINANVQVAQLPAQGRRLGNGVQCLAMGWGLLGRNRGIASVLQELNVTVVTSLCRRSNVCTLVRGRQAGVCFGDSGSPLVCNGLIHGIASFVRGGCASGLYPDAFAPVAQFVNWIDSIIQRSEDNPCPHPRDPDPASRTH

[3] = Blood level screening after oral dose; format: in vivo, Sprague-Dawley rats; details: rat, oral gavage 10 mg/kg; for concentration at 1 h / concentration at 3 h / concentration at 6 h: male, Sprague-Dawley, plasma; for concentration at 1 h: read-out: Plasma Levels (μM) 1 hr; for concentration at 3 h: read-out: Plasma Levels (μM) 3 hr; for concentration at 6 h: read-out: Plasma Levels (μM) 6 hr
Summary of the method: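 Unfasted male Sprague-Dawley rats received 10 mg/kg by oral gavage in PEG, PEG-400 or PEG:H2O:EtOH. Plasma was solvent-extracted and the inhibitor measured by HPLC or LC/MS.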

[4] = tested on: polymorphoneucleocyte (PMN); experiment: Extracellular Matrix (ECM) degradation assay; format: cell-based; details: PMN's stimulated with opsonized zymosan, 4 hr at 37° C.; for ECM DATA % Inhibition 1 uM / inhibition at 1 µM: 1 uM inhibitor; for ECM DATA % Inhibition 5 uM / inhibition at 5 µM: 5 uM inhibitor
Summary of the method: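 Radiolabelled ([35S]sulfate/[3H]proline) ECM from R22 rat smooth muscle cells preincubated 30 min with 1 or 5 uM inhibitor in HBSS (<2% DMSO). PMNs (5×10^5/well) stimulated with serum-opsonized zymosan (10 particles/PMN), 4 h at 37 °C. Degradation = released over total ECM counts, minus PMN-free basal release.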

Ki [2]: 1.9 nM | Plasma Levels (μM) 1 hr [3]: 0.114 µM | Plasma Levels (μM) 3 hr [3]: 0.188 µM | Plasma Levels (μM) 6 hr [3]: 0.1 µM
SMILES: Cc1cccc(Cc2nnc(C(=O)[C@@H](NC(=O)CN3C(=O)NC(c4ccccc4)(c4ccccc4)C3=O)C(C)C)o2)c1 [CE2252, 4,4-Diphenyl-2,5-imidazolidinedione-N-[1-(2-[5-(3-methylbenzyl)-1,3,4-oxadiazolyl]carbonyl)-2-(S)-methylpropyl]acetamide]
ECM DATA % Inhibition 1 uM [4]: 45.4% | ECM DATA % Inhibition 5 uM [4]: 65.2%

Ki [2]: 11 nM | concentration at 1 h [3]: 0.282 µM | concentration at 3 h [3]: 0.246 µM | concentration at 6 h [3]: 0.163 µM
SMILES: Cc1cccc(Cc2nnc(C(=O)[C@@H](NC(=O)CN3C(=O)NC4(Cc5ccccc5C4)C3=O)C(C)C)o2)c1 [CE2253, 4-Spiro-(2-indanyl)-2,5-imidazolidinedione-N-[1-(2-[5-(3-methylbenzyl)-1,3,4-oxadiazolyl]carbonyl)-2-(S)-methylpropyl]acetamide]
inhibition at 1 µM [4]: 31.9% | inhibition at 5 µM [4]: 45.9%

Ki [2]: 16 nM | Plasma Levels (μM) 1 hr [3]: 0.9 µM | Plasma Levels (μM) 3 hr [3]: 0.33 µM | Plasma Levels (μM) 6 hr [3]: 0.2 µM
SMILES: CC(C)[C@H](NC(=O)CN1C(=O)N[C@H](Cc2ccc(O)cc2)C1=O)C(=O)c1nnc(Cc2ccc3c(c2)OCO3)o1 [CE2256, 4-(R)-(4-Hydroxybenzyl)-2,5-imidazolidinedione-N-[1-(2-[5-(3,4-methylenedioxybenzyl)-1,3,4-oxadiazolyl]carbonyl)-2-(S)-methylpropyl]acetamide]
ECM DATA % Inhibition 1 uM [4]: 24% | ECM DATA % Inhibition 5 uM [4]: 47.8%

Ki [2]: 3.3 nM | Plasma Levels (μM) 1 hr [3]: 0.597 µM | Plasma Levels (μM) 3 hr [3]: 0.846 µM | Plasma Levels (μM) 6 hr [3]: 0.502 µM
SMILES: CC(C)[C@H](NC(=O)CN1C(=O)NC(c2ccccc2)(c2ccccc2)C1=O)C(=O)c1nnc(Cc2ccc3c(c2)OCO3)o1 [CE2259, 4,4-Diphenyl-2,5-imidazolidinedione-N-[1-(2-[5-(3,4-methylenedioxybenzyl)-1,3,4-oxadiazolyl]carbonyl)-2-(S)-methylpropyl]acetamide]
ECM DATA % Inhibition 1 uM [4]: 43% | ECM DATA % Inhibition 5 uM [4]: 59.6%

Ki [2]: 0.39 nM | concentration at 1 h [3]: 3.53 µM | concentration at 3 h [3]: 3.05 µM | concentration at 6 h [3]: 1.89 µM
SMILES: Cc1cccc(Cc2nnc(C(=O)[C@@H](NC(=O)Cn3c(-c4ccccc4)ncc(N)c3=O)C(C)C)o2)c1 [CE2260, 2-[5-Amino-6-oxo-2-phenyl-1,6-dihydro-1-pyrimidinyl]-N-[1-(2-[5-(3-methylbenzyl)-1,3,4-oxadiazolyl]carbonyl)-2-(S)-methylpropyl]acetamide]
inhibition at 1 µM [4]: 68.3% | inhibition at 5 µM [4]: 59.7%

The next lines start with the molecule.

SMILES: CC(C)C(NC(=O)Cn1c(-c2ccccc2)nccc1=O)C(=O)c1nnc(C(C)(C)C)o1 (racemic) [ONO-PO-737, 2-[6-Oxo-2-phenyl)-1,6-dihydro-1-pyrimidinyl]-N-[1-(2-[5-tert-butyl-1,3,4-oxadiazolyl]carbonyl)-2-(R,S)-methylpropyl]acetamide]
Ki [1]: 36.3 nM

SMILES: Cc1cccc(Cc2nnc(C(=O)[C@@H](NC(=O)CN3C(=O)CN=C(c4ccccc4N(C)C)c4ccccc43)C(C)C)o2)c1 [CE2258, 2-Oxo-5-phenyl-1,4-(2′-dimethylaminobenzodiazepine)-N-[1-(2-[5-(3-methylbenzyl)-1,3,4-oxadiazolyl]carbonyl)-2-(S)-methylpropyl]acetamide]
Ki [2]: 3.7 nM | Plasma Levels (μM) 1 hr [3]: 1.624 µM | Plasma Levels (μM) 3 hr [3]: 1.5 µM | Plasma Levels (μM) 6 hr [3]: 1.212 µM | ECM DATA % Inhibition 1 uM [4]: 42.9% | ECM DATA % Inhibition 5 uM [4]: 38.1%

SMILES: CC(C)[C@H](NC(=O)Cn1c(-c2ccc(F)cc2)ncc(NC(=O)OCc2ccccc2)c1=O)C(=O)c1nnc(C(C)(C)c2ccccc2)o1 [ONO-PO-690, 2-[5-(Benzyloxycarbonyl)amino-6-oxo-2-(4-fluorophenyl)-1,6-dihydro-1-pyrimidinyl]-N-[1-(2-[5-(α,α-dimethylbenzyl)-1,3,4-oxadiazolyl]carbonyl)-2-(S)-methylpropyl]acetamide]
Ki [1]: 78.3 nM

SMILES: CC(C)[C@H](NC(=O)Cn1c(-c2ccc(F)cc2)ncc(N)c1=O)C(=O)c1nnc(-c2ccccc2)o1 [ONO-PO-694, 2-[5-Amino-6-oxo-2-(4-fluorophenyl)-1,6-dihydro-1-pyrimidinyl]-N-[1-(2-[5-phenyl-1,3,4-oxadiazolyl]carbonyl)-2-(S)-methylpropyl]acetamide]
Ki [1]: 24.8 nM

SMILES: CC(C)[C@H](NC(=O)Cn1c(-c2ccc(F)cc2)ncc(N)c1=O)C(=O)c1nnc(-c2cccnc2)o1 [ONO-PO-695, 2-[5-Amino-6-oxo-2-(4-fluorophenyl)-1,6-dihydro-1-pyrimidinyl]-N-[1-(2-[5-(3-pyridyl)-1,3,4-oxadiazolyl]carbonyl)-2-(S)-methylpropyl]acetamide]
Ki [1]: 13.9 nM

SMILES: CC(C)[C@H](NC(=O)Cn1c(-c2ccc(F)cc2)ncc(NC(=O)OCc2ccccc2)c1=O)C(=O)c1nnc(-c2ccccc2)o1 [ONO-PO-697, 2-[5-(Benzyloxycarbonyl)amino-6-oxo-2-(4-fluorophenyl)-1,6-dihydro-1-pyrimidinyl]-N-[1-(2-[5-phenyl-1,3,4-oxadiazolyl]carbonyl)-2-(S)-methylpropyl]acetamide]
Ki [1]: 27.3 nM

SMILES: CC(C)[C@H](NC(=O)Cn1c(-c2ccc(F)cc2)ncc(NC(=O)OCc2ccccc2)c1=O)C(=O)c1nnc(C(C)(C)C)o1 [ONO-PO-698, 2-[5-(Benzyloxycarbonyl)amino-6-oxo-2-(4-fluorophenyl)-1,6-dihydro-1-pyrimidinyl]-N-[1-(2-[5-tert-butyl-1,3,4-oxadiazolyl]carbonyl)-2-(S)-methylpropyl]acetamide]
Ki [1]: 0.77 nM

SMILES: COc1ccc(-c2nnc(C(=O)[C@@H](NC(=O)Cn3c(-c4ccc(F)cc4)ncc(N)c3=O)C(C)C)o2)cc1 [ONO-PO-699, 2-[5-Amino-6-oxo-2-(4-fluorophenyl)-1,6-dihydro-1-pyrimidinyl]-N-[1-(2-[5-(4-methoxyphenyl)-1,3,4-oxadiazolyl]carbonyl)-2-(S)-methylpropyl]acetamide]
Ki [1]: 21.2 nM

SMILES: CC(C)[C@H](NC(=O)Cn1c(-c2ccc(F)cc2)ncc(N)c1=O)C(=O)c1nnc(C(C)(C)c2ccc(O)c(O)c2)o1 [ONO-PO-701, 2-[5-Amino-6-oxo-2-(4-fluorophenyl)-1,6-dihydro-1-pyrimidinyl]-N-[1-(2-[5-(α,α-dimethyl-3,4-dihydroxybenzyl)-1,3,4-oxadiazolyl]carbonyl)-2-(S)-methylpropyl]acetamide]
Ki [1]: 2.98 nM

SMILES: Cc1cccc(Cc2nnc(C(=O)[C@@H](NC(=O)Cn3c(-c4ccc(F)cc4)ncc(NS(C)(=O)=O)c3=O)C(C)C)o2)c1 [ONO-PO-702, 2-[5-(Methylsulfonyl)amino-6-oxo-2-(4-fluorophenyl)-1,6-dihydro-1-pyrimidinyl]-N-[1-(2-[5-(3-methylbenzyl)-1,3,4-oxadiazolyl]carbonyl)-2-(S)-methylpropyl]acetamide]
Ki [1]: 1.78 nM

SMILES: CC(C)[C@H](NC(=O)Cn1c(-c2ccc(F)cc2)ncc(N)c1=O)C(=O)c1nnc(Cc2ccccc2)o1 [ONO-PO-703, 2-[5-Amino-6-oxo-2-(4-fluorophenyl)-1,6-dihydro-1-pyrimidinyl]-N-[1-(2-[5-benzyl-1,3,4-oxadiazolyl]carbonyl)-2-(S)-methylpropyl]acetamide]
Ki [1]: 2.25 nM

SMILES: Cc1nnc(C(=O)[C@@H](NC(=O)Cn2c(-c3ccc(F)cc3)ncc(N)c2=O)C(C)C)o1 [ONO-PO-704, 2-[5-Amino-6-oxo-2-(4-fluorophenyl)-1,6-dihydro-1-pyrimidinyl]-N-[1-(2-[5-methyl-1,3,4-oxadiazolyl]carbonyl)-2-(S)-methylpropyl]acetamide]
Ki [1]: 14 nM
